Values joined by “and” are separate entries in the source; they are usually repeats but may differ in a detail not shown here. Equal values may be shown once.
Experiment: xn = mol fraction of the nth substance listed

CC(C)[C@@H]1CC[C@@H](C)C[C@H]1O + CCCCCCCO
Conditions	viscosity [mPa·s]
298.15 K, 101.33 kPa, x1 = 0.5	27.53

CCCCCCCCCCO + CCCCCCCO
viscosity [mPa·s], 101.8 kPa
Conditions	x2 = 0.1302	x2 = 0.3682	x2 = 0.5771	x2 = 0.7604	x2 = 0.9256
298.15 K	10.82	9.364	8.193	7.155	6.307
308.15 K	7.586	6.635	5.836	5.18	4.596
318.15 K	5.438	4.801	4.264	3.812	3.413

CCOC(=O)OCC + CCCCCCCO
101 kPa
Conditions	viscosity [mPa·s]
293.15 K, x1 = 0.0488	5.846
293.15 K, x1 = 0.1045	4.795
293.15 K, x1 = 0.1829	3.725
293.15 K, x1 = 0.3015	2.669
293.15 K, x1 = 0.4047	2.08
293.15 K, x1 = 0.4807	1.748
293.15 K, x1 = 0.5714	1.453
293.15 K, x1 = 0.7024	1.153
293.15 K, x1 = 0.7985	0.995
293.15 K, x1 = 0.9023	0.873
293.15 K, x1 = 0.9522	0.831
303.15 K, x1 = 0.06097	4.061
303.15 K, x1 = 0.1159	3.411
303.15 K, x1 = 0.1861	2.773
303.15 K, x1 = 0.296	2.086
303.15 K, x1 = 0.4	1.655
303.15 K, x1 = 0.4747	1.417
303.15 K, x1 = 0.5946	1.149
303.15 K, x1 = 0.7056	0.955
303.15 K, x1 = 0.7928	0.851
303.15 K, x1 = 0.9047	0.755
303.15 K, x1 = 0.9521	0.727
313.15 K, x1 = 0.05658	3.024
313.15 K, x1 = 0.1024	2.586
313.15 K, x1 = 0.1931	2.03
313.15 K, x1 = 0.3063	1.576
313.15 K, x1 = 0.3932	1.348
313.15 K, x1 = 0.4994	1.121
313.15 K, x1 = 0.5837	0.974
313.15 K, x1 = 0.7095	0.811
313.15 K, x1 = 0.7894	0.736
313.15 K, x1 = 0.8956	0.661
313.15 K, x1 = 0.9569	0.634

CC(C)[C@@H]1CC[C@@H](C)C[C@H]1O + CCCCCCO
Conditions	viscosity [mPa·s]
298.15 K, 101.33 kPa, x1 = 0.5	22.95

CCCCCCCCCCO + CCCCCCO
viscosity [mPa·s], 101.8 kPa
Conditions	x2 = 0.1493	x2 = 0.3989	x2 = 0.6071	x2 = 0.7831	x2 = 0.9346
298.15 K	10.38	8.464	7.01	5.822	4.905
308.15 K	7.307	6.019	5.068	4.271	3.643
318.15 K	5.25	4.393	3.745	3.191	2.75

CCOC(=O)OCC + CCCCCCO
101 kPa
Conditions	viscosity [mPa·s]
293.15 K, x1 = 0.0551	4.432
293.15 K, x1 = 0.1001	3.822
293.15 K, x1 = 0.2106	2.778
293.15 K, x1 = 0.3101	2.17
293.15 K, x1 = 0.4052	1.77
293.15 K, x1 = 0.5061	1.454
293.15 K, x1 = 0.6093	1.229
293.15 K, x1 = 0.7555	0.999
293.15 K, x1 = 0.7968	0.958
293.15 K, x1 = 0.8927	0.868
293.15 K, x1 = 0.9522	0.826
303.15 K, x1 = 0.05134	3.305
303.15 K, x1 = 0.1004	2.818
303.15 K, x1 = 0.2102	2.088
303.15 K, x1 = 0.3094	1.667
303.15 K, x1 = 0.4091	1.367
303.15 K, x1 = 0.5094	1.145
303.15 K, x1 = 0.6017	0.998
303.15 K, x1 = 0.7089	0.873
303.15 K, x1 = 0.8045	0.795
303.15 K, x1 = 0.9051	0.734
303.15 K, x1 = 0.9543	0.715
313.15 K, x1 = 0.06803	2.378
313.15 K, x1 = 0.222	1.602
313.15 K, x1 = 0.3216	1.303
313.15 K, x1 = 0.4055	1.125
313.15 K, x1 = 0.5084	0.954
313.15 K, x1 = 0.6037	0.839
313.15 K, x1 = 0.7059	0.748
313.15 K, x1 = 0.8097	0.682
313.15 K, x1 = 0.9065	0.642
313.15 K, x1 = 0.957	0.625

Cc1ccccc1C + CCCCCCO
viscosity, 101 kPa
Conditions	303.15 K	313.15 K	318.15 K	323.15 K
x2 = 0.0999	0.758 mPa·s	0.663 mPa·s	–	0.584 mPa·s
x2 = 0.1	0.7581 mPa·s	0.6626 mPa·s	–	0.5835 mPa·s
x2 = 0.1999	0.852 mPa·s	0.731 mPa·s	–	0.637 mPa·s
x2 = 0.2	0.852 mPa·s	0.7312 mPa·s	0.6825 mPa·s	0.6374 mPa·s
x2 = 0.2999	0.978 mPa·s	0.829 mPa·s	–	0.713 mPa·s
x2 = 0.3	0.9776 mPa·s	0.8292 mPa·s	–	0.7127 mPa·s
x2 = 0.4	1.142 mPa·s	0.9571 mPa·s	–	0.8098 mPa·s
x2 = 0.4001	1.142 mPa·s	0.957 mPa·s	–	0.81 mPa·s
x2 = 0.4997	1.361 mPa·s	1.118 mPa·s	–	0.933 mPa·s
x2 = 0.5	1.361 mPa·s	1.118 mPa·s	–	0.933 mPa·s
x2 = 0.6	1.651 mPa·s and 1.651 mPa·s	1.325 mPa·s and 1.325 mPa·s	–	1.087 mPa·s and 1.087 mPa·s
x2 = 0.7	2.034 mPa·s and 2.034 mPa·s	1.596 mPa·s and 1.596 mPa·s	–	1.284 mPa·s and 1.284 mPa·s
x2 = 0.8	2.532 mPa·s and 2.532 mPa·s	1.951 mPa·s and 1.951 mPa·s	–	1.541 mPa·s and 1.541 mPa·s
x2 = 0.8999	3.141 mPa·s	2.391 mPa·s	–	1.859 mPa·s
x2 = 0.9	3.141 mPa·s	2.391 mPa·s	–	1.859 mPa·s

CN1CCN(C)C1=O + CCCCCCn1cc[n+](C)c1.[Cl-]
100 kPa
Conditions	viscosity [mPa·s]
298.15 K, x2 = 0.1007	4.815
303.15 K, x2 = 0.7981	978.5

CC(C)[C@@H]1CC[C@@H](C)C[C@H]1O + CCCCO
Conditions	viscosity [mPa·s]
298.15 K, 101.33 kPa, x1 = 0.5	18.77

CCCCCCCCCCO + CCCCO
viscosity [mPa·s]
Conditions	293.15 K	298.15 K	308.15 K	318.15 K
101 kPa, x2 = 0.05	–	10.62	7.143	5.139
101 kPa, x2 = 0.1	–	10.2	6.798	4.922
101 kPa, x2 = 0.15	–	9.731	6.473	4.71
101 kPa, x2 = 0.2	–	9.226	6.163	4.501
101 kPa, x2 = 0.25	–	8.701	5.866	4.294
101 kPa, x2 = 0.3	–	8.167	5.576	4.088
101 kPa, x2 = 0.35	–	7.635	5.292	3.883
101 kPa, x2 = 0.4	–	7.113	5.012	3.678
101 kPa, x2 = 0.45	–	6.609	4.734	3.475
101 kPa, x2 = 0.5	–	6.127	4.456	3.272
101 kPa, x2 = 0.55	–	5.671	4.179	3.07
101 kPa, x2 = 0.6	–	5.243	3.903	2.872
101 kPa, x2 = 0.65	–	4.843	3.629	2.676
101 kPa, x2 = 0.7	–	4.47	3.358	2.485
101 kPa, x2 = 0.75	–	4.12	3.093	2.301
101 kPa, x2 = 0.8	–	3.788	2.837	2.124
101 kPa, x2 = 0.85	–	3.468	2.592	1.958
101 kPa, x2 = 0.9	–	3.152	2.364	1.804
101 kPa, x2 = 0.95	–	2.828	2.157	1.665
101.33 kPa, x2 = 0.1748	11.91	–	–	–
101.33 kPa, x2 = 0.1793	–	9.791	–	–
101.33 kPa, x2 = 0.2939	10.27	–	–	–
101.33 kPa, x2 = 0.4002	–	7.559	–	–
101.33 kPa, x2 = 0.491	7.756	–	–	–
101.33 kPa, x2 = 0.5389	–	6.102	–	–
101.33 kPa, x2 = 0.6325	6.156	–	–	–
101.33 kPa, x2 = 0.7242	–	4.498	–	–
101.33 kPa, x2 = 0.7787	4.69	–	–	–
101.33 kPa, x2 = 0.836	–	3.659	–	–
101.33 kPa, x2 = 0.8851	3.806	–	–	–
101.33 kPa, x2 = 0.9219	–	3.077	–	–
